Data reported in ChEMBL document CHEMBL1150276, “2-amino-1,3-thiazol-4(5H)-ones as potent and selective 11beta-hydroxysteroid dehydrogenase type 1 inhibitors: enzyme-ligand co-crystal structure and demonstration of pharmacodynamic effects in C57Bl/6 mice” (J Med Chem, 2008).

Key:
[1] = target: 11-beta-hydroxysteroid dehydrogenase 1 (Homo sapiens, UniProt P28845)
Description: Binding affinity to human 11beta HSD1 expressed in Escherichia coli by scintillation proximity assay

[2] = target: T1, 11-beta-hydroxysteroid dehydrogenase type 2 (Homo sapiens, UniProt P80365); experiment: biochemical
T1 sequence (P80365 whole entry): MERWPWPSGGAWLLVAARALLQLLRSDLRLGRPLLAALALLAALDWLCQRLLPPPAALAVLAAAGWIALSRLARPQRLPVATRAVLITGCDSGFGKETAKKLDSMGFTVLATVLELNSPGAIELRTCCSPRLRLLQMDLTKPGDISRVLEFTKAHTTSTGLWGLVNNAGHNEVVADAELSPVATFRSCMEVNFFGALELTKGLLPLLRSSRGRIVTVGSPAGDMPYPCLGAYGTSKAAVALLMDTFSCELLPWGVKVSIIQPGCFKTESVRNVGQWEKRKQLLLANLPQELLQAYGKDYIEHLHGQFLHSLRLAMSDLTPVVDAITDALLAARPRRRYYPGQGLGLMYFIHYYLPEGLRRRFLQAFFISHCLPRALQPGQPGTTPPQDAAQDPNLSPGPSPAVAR
Description: Binding affinity to human 11beta HSD2 in HEK293 cells by scintillation proximity assay

[3] = Oral bioavailability in rat at 2 mg/kg; assay type: ADME, organism-based; conditions: in vivo
[4] = Plasma concentration in C57BL/6 mouse plasma at 30 mg/kg, po after 6 hrs; assay type: ADME, organism-based; parameters: dose 30 mg/kg, route oral
[5] = system: Mus musculus; experiment: Ex vivo inhibition of 11beta HSD1 activity in C57BL/6 mouse liver at 30 mg/kg, po after 6 hrs; assay type: functional; parameters: scale not given: the % may be the effect or the level left
[6] = system: Mus musculus; experiment: Ex vivo inhibition of 11beta HSD1 activity in C57BL/6 mouse adipose tissue at 30 mg/kg, po after 2 hrs; assay type: functional; parameters: scale not given: the % may be the effect or the level left
[7] = system: Mus musculus; experiment: Ex vivo inhibition of 11beta HSD1 activity in C57BL/6 mouse adipose tissue at 30 mg/kg, po after 6 hrs; assay type: functional; parameters: scale not given: the % may be the effect or the level left
[8] = Clearance in rat at 0.5 mg/kg, iv; assay type: ADME, organism-based; parameters: dose 0.5 mg/kg, route intravenous; conditions: in vivo
[9] = system: Plasma; experiment: Protein binding in C57BL/6 mouse plasma assessed as fraction unbound at 30 mg/kg, po after 2 hrs; assay type: ADME, organism-based; parameters: dose 30 mg/kg, route oral; conditions: in vivo
[10] = Plasma concentration in C57BL/6 mouse plasma at 30 mg/kg, po after 2 hrs; assay type: ADME, organism-based; parameters: dose 30 mg/kg, route oral
[11] = Half life in rat at 2 mg/kg, po; assay type: ADME, organism-based; parameters: dose 2 mg/kg, route oral; conditions: in vivo
[12] = target: 11-beta-hydroxysteroid dehydrogenase 1 (Mus musculus, UniProt P50172); experiment: Binding affinity to C57BL/6 mouse recombinant 11beta HSD1 by scintillation proximity assay
11-beta-hydroxysteroid dehydrogenase 1 (Mus musculus, UniProt P50172), sequence (P50172 whole entry): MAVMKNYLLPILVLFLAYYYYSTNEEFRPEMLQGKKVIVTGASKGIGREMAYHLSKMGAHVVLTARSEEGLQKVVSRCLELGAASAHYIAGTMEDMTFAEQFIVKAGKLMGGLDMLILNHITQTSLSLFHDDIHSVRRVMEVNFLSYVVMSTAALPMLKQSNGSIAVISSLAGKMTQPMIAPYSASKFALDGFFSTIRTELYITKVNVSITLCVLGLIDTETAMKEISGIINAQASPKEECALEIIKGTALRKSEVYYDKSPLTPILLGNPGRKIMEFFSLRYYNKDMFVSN

[13] = Volume of distribution at steady state in rat at 0.5 mg/kg, iv; assay type: ADME, organism-based; parameters: dose 0.5 mg/kg, route intravenous; conditions: in vivo, read-out: Vdss
[14] = Tmax in rat at 2 mg/kg, po; assay type: ADME, organism-based; parameters: dose 2 mg/kg, route oral; conditions: in vivo
[15] = system: Mus musculus; experiment: Ex vivo inhibition of 11beta HSD1 activity in C57BL/6 mouse liver at 30 mg/kg, po after 2 hrs; assay type: functional; parameters: scale not given: the % may be the effect or the level left
[16] = system: Plasma; experiment: Protein binding in C57BL/6 mouse plasma assessed as fraction unbound at 30 mg/kg, po after 6 hrs; assay type: ADME, organism-based; parameters: dose 30 mg/kg, route oral; conditions: in vivo
[17] = target: 11-beta-hydroxysteroid dehydrogenase 1 (Rattus norvegicus, UniProt P16232); experiment: Binding affinity to rat recombinant 11beta HSD1 by scintillation proximity assay
11-beta-hydroxysteroid dehydrogenase 1 (Rattus norvegicus, UniProt P16232), sequence (P16232 whole entry): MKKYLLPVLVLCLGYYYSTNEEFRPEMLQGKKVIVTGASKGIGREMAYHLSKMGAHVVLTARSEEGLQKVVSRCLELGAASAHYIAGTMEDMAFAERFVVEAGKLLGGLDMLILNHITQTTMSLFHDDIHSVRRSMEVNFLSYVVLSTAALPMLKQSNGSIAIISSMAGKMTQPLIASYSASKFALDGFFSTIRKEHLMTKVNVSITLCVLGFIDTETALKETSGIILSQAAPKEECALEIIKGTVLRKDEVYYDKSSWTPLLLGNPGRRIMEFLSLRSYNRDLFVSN

[18] = system: Rattus norvegicus; experiment: AUC(0 to infinity) in rat at 2 mg/kg, po; assay type: ADME, organism-based, Plasma; parameters: time infinity, dose 2 mg/kg, route oral; conditions: in vivo
[19] = Ratio of Ki for mouse 11beta HSD1 over Ki for human 11beta HSD1

11-beta-hydroxysteroid dehydrogenase 1 (Homo sapiens, UniProt P28845), sequence (P28845 whole entry): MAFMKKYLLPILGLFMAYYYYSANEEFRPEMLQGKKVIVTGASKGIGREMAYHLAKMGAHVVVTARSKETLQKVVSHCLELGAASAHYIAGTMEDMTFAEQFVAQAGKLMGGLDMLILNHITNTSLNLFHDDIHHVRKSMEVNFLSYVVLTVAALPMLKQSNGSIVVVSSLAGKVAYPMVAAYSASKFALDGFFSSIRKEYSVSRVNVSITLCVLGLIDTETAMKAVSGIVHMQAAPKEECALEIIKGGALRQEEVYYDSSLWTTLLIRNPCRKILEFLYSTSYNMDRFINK

Row | Ki [1] | IC50 [2] | Compound | further results
1 | 38 nM |  | CCCC1(C)SC(NC2C(C)(C)C2(C)C)=NC1=O (racemic) | 
2 | 20 nM |  | CCC1(CC)SC(NC23CC4CC(CC(C4)C2)C3)=NC1=O | 
3 | 149 nM | > 10000 nM | CCCC1(C)SC(NC2C3CCC2CC3)=NC1=O (racemic) | 
4 | 34 nM |  | CCCC1(C)SC(NCC2CCCCC2)=NC1=O (racemic) | 
5 | 12 nM |  | CCCC1(C)SC(NC23CC4CC(CC2C4)C3)=NC1=O (racemic) | 
6 | 58 nM |  | CCC1(C)SC(NC2C(C)(C)C2(C)C)=NC1=O (racemic) | 
7 | 24 nM |  | CCCC1(C)SC(NC23CC4CC(CC(C4)C2)C3)=NC1=O (racemic) | 
8 | 189 nM | > 10000 nM | CCC1SC(Nc2ccccc2C)=NC1=O (configuration not stated) | 
9 | 3 nM | > 10000 nM | O=C1N=C(NC23CC4CC(CC2C4)C3)SC12CCCC2 | bioavailability [3]: 45%; concentration at 6 h [4]: 7.3 µM; Activity [5]: 79%; Activity [6]: 86%; Activity [7]: 87%; clearance [8]: 104 mL/min/kg; Activity [9]: 120 nM; Fu [9]: 0.63%; concentration at 2 h [10]: 20 µM; half-life [11]: 2 h; Ki [12]: 120 nM; Vd [13]: 1.84 L/kg; Tmax [14]: 2.5 h; Activity [15]: 89%; Activity [16]: 44 nM; Fu [16]: 0.63%; Ki [17]: 180 nM; AUC [18]: 175 ng·h/mL; Ratio Ki [19]: 40
10 | 13 nM | > 10000 nM | CCC1(CC)SC(NC23CC4CC(CC2C4)C3)=NC1=O | 
11 | 28 nM |  | O=C1N=C(NC23CC4CC(CC(C4)C2)C3)SC12CCCC2 | 
12 | 151 nM |  | CCC1(C)SC(Nc2ccccc2F)=NC1=O (configuration not stated) | 
13 | 73 nM | > 10000 nM | CCC1(C)SC(NC23CCC(CC2)C3)=NC1=O (racemic) | 
14 | 32 nM | > 10000 nM | CCCC1(C)SC(NC2CCCCCC2)=NC1=O (racemic) | 
15 | 28 nM | > 10000 nM | CCCC1(C)SC(NC2CCCCCCC2)=NC1=O (racemic) | 
16 | 47 nM | > 10000 nM | CCC1(C)SC(NC2CCCCCCC2)=NC1=O (racemic) | 
17 | 25 nM |  | CCCC1(C)SC(NC23CCC(CC2)C3)=NC1=O (racemic) | 
18 | 55 nM |  | CCCC1(C)SC(NC2CCCCC2)=NC1=O (racemic) | 
19 | 126 nM |  | CCC1(C)SC(NC2CCCCC2)=NC1=O (racemic) | 
20 | 26 nM | > 10000 nM | CCC1(CC)SC(NC2CCCCCCC2)=NC1=O | 
21 | 64 nM |  | CCC1(C)SC(NCC2CCCCC2)=NC1=O (racemic) | 
22 | 14 nM | > 10000 nM | O=C1N=C(NC2CCCCCCC2)SC12CCCC2 | 
23 | 372 nM |  | CCC1(C)SC(NC2C3CCC2CC3)=NC1=O (racemic) | 
24 | 82 nM | > 10000 nM | CCC1(C)SC(NC2CCCCCC2)=NC1=O (racemic) | 
25 | 24 nM |  | CCC1(C)SC(NC23CC4CC(CC(C4)C2)C3)=NC1=O (racemic) | 
26 | 13 nM | > 10000 nM | CCC1(C)SC(NC23CC4CC(CC2C4)C3)=NC1=O (racemic) | 
